Six molecules from paper PMC8213730, “α-Helical peptidic scaffolds to target α-synuclein toxic species with nanomolar affinity” (Nature Communications, 2021) can be followed below.

For orientation: Kd means a measure of binding affinity in units of concentration.

Test [1] concerns the target α-synuclein N122C labelled with Alexa Fluor 488, monomer (UniProt P37840). The test can be described thus: FCS molecular brightness; sonicated fibril sample; brightness of the aggregates compared with that of the αS monomer; average number of αS molecules per aggregate.
The subject of test [2] is α-synuclein (αS) amyloid aggregation. The experiment in a line: αS amyloid aggregation kinetics by thioflavin-T fluorescence. Particulars: 70 μM αS with 35, 14, 7 (3.5) μM peptide, PBS, 37 °C. The class given is biochemical. As to the method:
αS amyloid aggregation was monitored in a 96 wells plate (non-treated) (Sarstedt, Germany) containing Teflon polyballs (1/8′′ diameter) (Polysciences Europe GmbH, Eppelheim, Germany) as described by Pujols and coworkers. Each well contained 150 μL solutions of 70 μM αS in PBS buffer with 40 μM thioflavin-T and the corresponding concentration of peptide. Plates were incubated at 37 °C, 100 rpm in an orbital culture shaker Max-Q 4000 (Thermo Fisher Scientific, Waltham, USA). Aggregation was analyzed every 2 h using a Victor3.0 Multilabel Reader Software-PerkinElmer 2030. (PerkinElmer, Waltham, USA). End-point measurements were performed after 32 h of incubation. Fluorescence intensity was measured in triplicate by exciting with a 430–450 nm filter and collecting the emission with a 480–510 nm filter. The resulting kinetics were normalized to the maximum fluorescence of the αS control (untreated).

The target in test [3] is α-synuclein type B* oligomers (AF488-labelled αS N122C) (UniProt P37840). The experiment in a line: dual-color fluorescence cross-correlation spectroscopy (dcFCCS).
Test [4] addresses α-synuclein type A* oligomers (AF488-labelled αS N122C) (UniProt P37840). The test is described as above.
Test [5] deals with α-synuclein sonicated amyloid fibrils (AF488-labelled αS N122C) (UniProt P37840). The description is as above.
The target in test [6] is T1, α-synuclein (αS) sonicated fibrils (Homo sapiens, UniProt P37840, N122C).
T1 construct: made in house; host or cells: Escherichia coli BL21 (DE3), pET21a
The test can be described thus: dcFCCS binding of labelled peptide to αS sonicated fibrils. As to the method:
(§1) This variant was expressed and purified as described above but including 5 mM DTT in all purification steps. The protein was labeled with maleimide-modified Alexa Fluor 488 (AF488) (Invitrogen, Carlsbad, USA) for 15–20 h at 4 °C in the dark. After quenching the reaction with 10 mM DTT, free unreacted dye in the protein solution was subsequently separated using a P10 desalting column (GE Healthcare, Waukesha, USA), and the labeled protein solution was flash frozen with liquid nitrogen and stored at −80 °C. […] The same labeling and purification strategy were followed as for αS, although in this case the unreacted free dye was removed from the protein solution using a polyacrylamide desalting column (Thermo Fisher Scientific, Waltham, USA).
(§2) For the isolation of type B* oligomers purified αS was dialyzed against Milli-Q water and lyophilized for 48 h in aliquots of 6 mg. The aliquots were resuspended in 500 μL of PBS pH 7.4 to a final concentration of ca. 800 μM, filtered through 0.22 μm filters and incubated at 37 °C without agitation for 20–24 h.

For test [7], the target named is T2, α-synuclein (αS) type A* oligomers (Homo sapiens, UniProt P37840, N122C).
T2 construct: made in house; host or cells: Escherichia coli BL21 (DE3), pET21a
The experiment in a line: dcFCCS binding of labelled peptide to αS type A* oligomers.

For test [8], the target named is T3, α-synuclein (αS) type B* oligomers (Homo sapiens, UniProt P37840, N122C).
T3 construct: made in house; host or cells: Escherichia coli BL21 (DE3), pET21a
The experiment in a line: dcFCCS binding of labelled peptide to αS type B* oligomers. The procedure:
as §1, §2

With “α-synuclein N122C labelled with Alexa Fluor 488, monomer (from UniProt P37840 1-140) (natural protein)”, the stoichiometry N (αS molecules per aggregate) in test [1] came out at 107. With “LELLEKLLKLLKDLLKKLL [Scaffold_19, only Leu, Asp, Glu and Lys]”, the “anti-aggregation (inhibitory) activity, Th-T titration” value in test [2] is reported as “same anti-aggregation activity than the parental variant”. “LL-37 with a single engineered N-terminal cysteine labelled with Atto647N (peptide)”: the stoichiometry N (binding sites per aggregate) in test [3] is 64; in test [4] it was 3; in test [5], 181. Consider “LELLAKLLKLLKDLLGKLL [All_Leu19, variant of All-Leu devoid of the last three C-terminal residues]”, for which the “anti-aggregation (inhibitory) activity, Th-T titration” value in test [2] is recorded as “retained the inhibitory activity”. Same read-out and setting: under LELLEELLKLLEDLLKKLL [Anionic_scaffold] stands “does not inhibit”. `CC[C@H](C)[C@H](NC(=O)[C@H](CCCCN)NC(=O)[C@H](CCC(=O)O)NC(=O)[C@H](CCCCN)NC(=O)[C@H](CO)NC(=O)[C@H](CCCCN)NC(=O)[C@H](CCCNC(=N)N)NC(=O)[C@H](Cc1ccccc1)NC(=O)[C@H](Cc1ccccc1)NC(=O)[C@H](CC(=O)O)NC(=O)CNC(=O)[C@H](CC(C)C)NC(=O)[C@@H](N)CC(C)C)C(=O)NCC(=O)N[C@@H](CCCCN)C(=O)N[C@@H](CCC(=O)O)C(=O)N[C@@H](Cc1ccccc1)C(=O)N[C@@H](CCCCN)C(=O)N[C@@H](CCCNC(=N)N)C(=O)N[C@H](C(=O)N[C@H](C(=O)N[C@@H](CCC(N)=O)C(=O)N[C@@H](CCCNC(=N)N)C(=O)N[C@H](C(=O)N[C@@H](CCCCN)C(=O)N[C@@H](CC(=O)O)C(=O)N[C@@H](Cc1ccccc1)C(=O)N[C@@H](CC(C)C)C(=O)N[C@@H](CCCNC(=N)N)C(=O)N[C@@H](CC(N)=O)C(=O)N[C@@H](CC(C)C)C(=O)N[C@H](C(=O)N1CCC[C@H]1C(=O)N[C@@H](CCCNC(=N)N)C(=O)N[C@H](C(=O)N[C@@H](CCC(=O)O)C(=O)N[C@@H](CO)C(=O)O)[C@@H](C)O)C(C)C)[C@@H](C)CC)C(C)C)[C@@H](C)CC` [LL-37]: the dissociation constant Kd stood at 5.14 nM in test [6], 1.92 nM in test [7] and 3.62 nM in test [8].
